# According to patent US20080182859A1 (Curis, Inc., priority 2006, published 2008):
# Counter-ions that a name gives are not always drawn.
# How the values were obtained:
# Type in all cases: cell-based
# sonic hedgehog pathway [1] = assay: Hedgehog pathway Gli-luciferase reporter assay, S12 cells; conditions: S12 mouse embryonic mesenchymal cells
# Source text: Mouse (TM3: mouse Leydig cells; S12: mouse embryonic mesenchymal cells) and human (Daoy: human medulloblastoma cell; HepM: human embryonic palatal mesenchymal cell) cell lines are used to screen small molecules for their ability to modulate the activity of the sonic hedgehog pathway (Table 1, Table 2, and Table 3). Stable hedgehog pathway reporter cell lines are established by specific antibiotic selection following transfection of a reporter plasmid containing a luciferase gene located directly downstream from the gli promoter. Consequently, any observable changes in cellular luciferase activity may be attributed to changes in sonic hedgehog pathway activity in mouse and human cells, respectively, since gli is the major by-product of this pathway. To calculate activity, we generate an eleven point dose curve for each compound using 1:3 dilutions in 96 well assay plates. Each plate tested also contains low and high control to establish maximal pathway activation so to establish/compare a percentage activation of each tested compound (AMAX) on respective plates. Also we calculate EC50 values, or a concentration where the pathway will be exactly 50% activated, for each tested compound to determine potency. In these cell lines, compounds that register >20% AMAX values are considered active.
# Stable hedgehog pathway reporter cell lines are established following specific antibiotic selection following transfection of a reporter plasmid In short, typically cells are plated in MicroTiter-plates at 10,000-20,000 cells per well, in growth media (containing 10%-20% FBS). After 48-72 hrs (HGL and DGL respectively) the media in the assay plates is switched to low-serum containing media (0.5% FBS). At that time compounds are added (at 1-5 μM) to the assay plates, in the presence or absence of hedgehog protein (octyl-modified version; 1-5 ng/ml). After another 24 hrs of incubation, the media from the assay plates is discarded and replaced with luciferase assay-mix. Subsequently, plates are incubated at RT for ˜15-30 mins and then read in a luminometer. [note: addition of the Hedgehog protein, although not critical, will sensitize the assay allowing the identification of weak actives].
# sonic hedgehog pathway [2] = assay: Human hedgehog reporter assay Daoy-GliLuc (DGL); conditions: Daoy human medulloblastoma cells, Gli-luciferase reporter
# How it was run: (§1)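 Luminescence read-out of gli-promoter luciferase in stably transfected cells; 11-point 1:3 dose curves, 24 h compound exposure in 0.5% FBS, ± octyl-modified Hh protein 1–5 ng/ml. AMAX as % of plate low/high controls; EC50 from curve; >20% AMAX counted active.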
# sonic hedgehog pathway [3] = assay: Human hedgehog reporter assay HEPM-GliLuc (HGL); conditions: HepM human embryonic palatal mesenchymal cells, Gli-luciferase reporter
# How it was run: as §1
# [4] = read-out: Human Daoy (Gli-Luc) Avg. EC50
SMILES,EC50 (sonic hedgehog pathway [2]; read-out: Daoy Avg. EC50) [nM],EC50 (sonic hedgehog pathway [2]; [4]) [nM],EC50 (sonic hedgehog pathway [1]; read-out: S12 Avg. EC50) [nM],EC50 (sonic hedgehog pathway [1]; read-out: Mouse S12 Avg. EC50) [nM],EC50 (sonic hedgehog pathway [3]) [nM]
"CN[C@H]1CC[C@@H](N(Cc2cc(-c3ccncc3)ccc2C)C(=O)c2sc3c(F)ccc(F)c3c2Cl)CC1 [Compound 392, 3-Chloro-4,7-difluoro-benzo[b]thiophene-2-carboxylic acid (4-methylamino-cyclohexyl)-(2-methyl-5-pyridin-4-yl-benzyl)-amide bis(trifluoroacetate)]",–,< 50,–,< 50,–
"CNC1CCC(N(Cc2cc(-c3cncc(F)c3)ccc2OC)C(=O)c2sc3c(F)ccc(F)c3c2Cl)CC1 (centres unmarked) [Compound 380, 3-Chloro-4,7-difluoro-benzo[b]thiophene-2-carboxylic acid [5-(5-fluoro-pyridin-3-yl)-2-methoxy-benzyl]-(4-methylamino-cyclohexyl)-amide]",–,< 50,–,< 50,–
"COc1ccc(-c2ccncc2)cc1CN(C(=O)c1sc2c(F)ccc(F)c2c1Cl)[C@H]1CC[C@@H](N)CC1 [Compound 375, N-((1r,4r)-4-aminocyclohexyl)-3-chloro-4,7-difluoro-N-(2-methoxy-5-(pyridin-4-yl)benzyl)benzo[b]thiophene-2-carboxamide hydrochloride]",–,< 50,–,< 50,–
CN[C@H]1CC[C@@H](N(Cc2cc(-c3cccnc3F)ccc2OC)C(=O)c2sc3cccc(F)c3c2Cl)CC1 [Compound 381],–,< 50,–,< 50,–
"CN[C@H]1CC[C@@H](N(Cc2cc(-c3ccc(N(C)S(C)(=O)=O)cc3)ccc2OC)C(=O)c2sc3c(F)ccc(F)c3c2Cl)CC1 [Compound 371, 3-Chloro-4,7-difluoro-benzo[b]thiophene-2-carboxylic acid [4′-(methanesulfonyl-methyl-amino)-4-methoxy-biphenyl-3-ylmethyl]-(4-methylamino-cyclohexyl)-amide hydrochloride]",–,< 50,–,< 50,–
"CN[C@H]1CC[C@@H](N(Cc2cc(-c3ccc([S+](C)[O-])cc3)ccc2OC)C(=O)c2sc3c(F)ccc(F)c3c2Cl)CC1 (some centres unmarked) [Compound 377, 3-Chloro-4,7-difluoro-benzo[b]thiophene-2-carboxylic acid (4′-methanesulfinyl-4-methoxy-biphenyl-3-ylmethyl)-(4-methylamino-cyclohexyl)-amide trifluoroacetate]",–,< 50,–,< 50,–
"CN[C@H]1CC[C@@H](N(Cc2cc(-c3ccc(NS(C)(=O)=O)cc3)ccc2OC)C(=O)c2sc3c(F)ccc(F)c3c2Cl)CC1 [Compound 370, 3-Chloro-4,7-difluoro-benzo[b]thiophene-2-carboxylic acid (4′-methanesulfonylamino-4-methoxy-biphenyl-3-ylmethyl)-(4-methylamino-cyclohexyl)-amide hydrochloride]",–,< 50,–,< 50,–
"CNC1CCC(N(Cc2cc(-c3ccncc3F)ccc2OC)C(=O)c2sc3cccc(F)c3c2Cl)CC1 (centres unmarked) [Compound 387, 3-Chloro-4-fluoro-benzo[b]thiophene-2-carboxylic acid [5-(3-fluoro-pyridin-4-yl)-2-methoxy-benzyl]-(4-methylamino-cyclohexyl)-amide]",–,< 50,–,< 50,–
"CN[C@H]1CC[C@@H](N(Cc2cc(-c3ccc(S(N)(=O)=O)cc3)ccc2OC)C(=O)c2sc3c(F)ccc(F)c3c2Cl)CC1 [Compound 388, 3-Chloro-4,7-difluoro-benzo[b]thiophene-2-carboxylic acid (4-methoxy-4′-sulfamoyl-biphenyl-3-ylmethyl)-(4-methylamino-cyclohexyl)-amide hydrochloride]",–,< 50,–,< 50,–
"CNC1CCC(N(Cc2cc(-c3ccncc3F)ccc2OC)C(=O)c2sc3c(F)ccc(F)c3c2Cl)CC1 (centres unmarked) [Compound 386, 3-Chloro-4,7-difluoro-benzo[b]thiophene-2-carboxylic acid [5-(3-fluoro-pyridin-4-yl)-2-methoxy-benzyl]-(4-methylamino-cyclohexyl)-amide]",–,< 50,–,< 50,–
"COc1ccc(-c2ccc(S(C)(=O)=O)cc2)cc1CN(C(=O)c1sc2c(F)ccc(F)c2c1Cl)[C@H]1CC[C@@H](N)CC1 [Compound 390, 3-Chloro-4,7-difluoro-benzo[b]thiophene-2-carboxylic acid (4-amino-cyclohexyl)-(4′-methanesulfonyl-4-methoxy-biphenyl-3-ylmethyl)-amide hydrochloride]",–,< 50,–,< 50,–
"CN[C@H]1CC[C@@H](N(Cc2cc(-c3ccncc3)ccc2O)C(=O)c2sc3c(F)ccc(F)c3c2Cl)CC1 [Compound 368, 3-Chloro-4,7-difluoro-benzo[b]thiophene-2-carboxylic acid (2-hydroxy-5-pyridin-4-yl-benzyl)-(4-methylamino-cyclohexyl)-amide dihydrochloride]",< 50,–,< 50,–,< 50
"CNC1CCC(N(Cc2cc(-c3cccc(SC)c3)ccc2OC)C(=O)c2sc3c(F)ccc(F)c3c2Cl)CC1 (centres unmarked) [Compound 372, 3-Chloro-4,7-difluoro-benzo[b]thiophene-2-carboxylic acid (4-methoxy-3′-methylsulfanyl-biphenyl-3-ylmethyl)-(4-methylamino-cyclohexyl)-amide hydrochloride]",–,< 50,–,< 50,–
"CN[C@H]1CC[C@@H](N(Cc2cc(-c3cncc(F)c3)ccc2OC)C(=O)c2sc3cccc(F)c3c2Cl)CC1 [Compound 383, 3-chloro-4-fluoro-N-(5-(5-fluoropyridin-3-yl)-2-methoxybenzyl)-N-((1s,4s)-4-(methylamino)cyclohexyl)benzo[b]thiophene-2-carboxamide]",–,< 50,–,< 50,–
"CN[C@H]1CC[C@@H](N(Cc2cc(-c3cc[n+]([O-])cc3)ccc2OC)C(=O)c2sc3c(F)ccc(F)c3c2Cl)CC1 [Compound 374, 4-(3-((3-chloro-4,7-difluoro-N-((1s,4s)-4-(methylamino)cyclohexyl)benzo[b]thiophene-2-carboxamido)methyl)-4-methoxyphenyl)pyridine 1-oxide]",–,< 50,–,< 50,–
"CN[C@H]1CC[C@@H](N(Cc2cc(-c3ccc(S(=O)(=O)N(C)C)cc3)ccc2OC)C(=O)c2sc3c(F)ccc(F)c3c2Cl)CC1 [Compound 391, 3-Chloro-4,7-difluoro-benzo[b]thiophene-2-carboxylic acid (4′-dimethylsulfamoyl-4-methoxy-biphenyl-3-ylmethyl)-(4-methylamino-cyclohexyl)-amide trifluoroacetate]",–,< 50,–,< 50,–

# Now from value to compound, other results behind:
EC50 (sonic hedgehog pathway [2]; read-out: Daoy Avg. EC50) [nM],EC50 (sonic hedgehog pathway [2]; [4]) [nM],SMILES,EC50 (sonic hedgehog pathway [1]; read-out: S12 Avg. EC50) [nM],EC50 (sonic hedgehog pathway [1]; read-out: Mouse S12 Avg. EC50) [nM],EC50 (sonic hedgehog pathway [3]) [nM]
< 50,–,"CN[C@H]1CC[C@H](N(Cc2cc(-c3cccc(S(C)(=O)=O)c3)ccc2OC)C(=O)c2sc3c(F)ccc(F)c3c2Cl)CC1 [Compound 412, 3-Chloro-4,7-difluoro-benzo[b]thiophene-2-carboxylic acid (3′-methanesulfonyl-4-methoxy-biphenyl-3-ylmethyl)-(4-methylamino-cyclohexyl)-amide hydrochloride]",< 50,–,–
50 to 250,–,CCOc1cc(-c2ccc(OC)c(CN(C(=O)c3sc4cccc(F)c4c3Cl)[C@H]3CC[C@H](NC)CC3)c2)ccn1 [Compound 415],50 to 250,–,–
–,50 to 250,"CCc1ccc(-c2ccncc2)cc1CN(C(=O)c1sc2c(F)ccc(F)c2c1Cl)[C@H]1CC[C@@H](NC)CC1 [Compound 395, 3-Chloro-4,7-difluoro-benzo[b]thiophene-2-carboxylic acid (2-ethyl-5-pyridin-4-yl-benzyl)-(4-methylamino-cyclohexyl)-amide dihydrochloride]",–,50 to 250,–
< 50,–,"COc1ccc(-c2cccnc2)cc1CN(C(=O)c1sc2cccc(F)c2c1Cl)[C@H]1CC[C@@H](N)CC1 [Compound 410, 3-Chloro-4-fluoro-benzo[b]thiophene-2-carboxylic acid (4-amino-cyclohexyl)-(2-methoxy-5-pyridin-3-yl-benzyl)-amide]",< 50,–,–
< 50,–,COc1ccc(-c2ccncc2F)cc1CN(C(=O)c1sc2c(F)ccc(F)c2c1Cl)[C@H]1CC[C@@H](N)CC1 [Compound 417],< 50,–,–
–,< 50,"CN[C@H]1CC[C@@H](N(Cc2cc(OC)cc(-c3ccncc3)c2)C(=O)c2sc3c(F)ccc(F)c3c2Cl)CC1 [Compound 394, 3-Chloro-4,7-difluoro-benzo[b]thiophene-2-carboxylic acid (3-methoxy-5-pyridin-4-yl-benzyl)-(4-methylamino-cyclohexyl)-amide bis(trifluoroacetate)]",–,< 50,–
50 to 250,–,COc1ccc(-c2cncc(F)c2)cc1CN(C(=O)c1sc2c(F)ccc(F)c2c1Cl)[C@H]1CC[C@@H](N)CC1 [Compound 416],< 50,–,–
